Assays:
[1] = target: Flt-1 (Homo sapiens, UniProt P17948); details: cited from earlier work
[2] = system: neointimal lesion formation; test: 28 day rat carotid artery balloon injury model; format: in vivo; details: for percent inhibition of neointimal lesion formation: 28 days post-balloon injury
Description: Compounds of formula I are tested in the following rat model.
Rats are dosed orally with placebo or a compound of formula 1. Daily dosing starts 3 days prior to surgery and continues for 31 days. Rat carotid arteries are balloon injured using a method described by Clowes et al., Lab. Invest. 1983;49;208-215. Following sacrifice at 28 days post-balloon Injury, carotid arteries are removed and processed for histologic and morphometric evaluation.

[3] = target: T1, Flt-3 (Homo sapiens, UniProt P36888); details: cited from earlier work
T1 sequence (P36888 27-993): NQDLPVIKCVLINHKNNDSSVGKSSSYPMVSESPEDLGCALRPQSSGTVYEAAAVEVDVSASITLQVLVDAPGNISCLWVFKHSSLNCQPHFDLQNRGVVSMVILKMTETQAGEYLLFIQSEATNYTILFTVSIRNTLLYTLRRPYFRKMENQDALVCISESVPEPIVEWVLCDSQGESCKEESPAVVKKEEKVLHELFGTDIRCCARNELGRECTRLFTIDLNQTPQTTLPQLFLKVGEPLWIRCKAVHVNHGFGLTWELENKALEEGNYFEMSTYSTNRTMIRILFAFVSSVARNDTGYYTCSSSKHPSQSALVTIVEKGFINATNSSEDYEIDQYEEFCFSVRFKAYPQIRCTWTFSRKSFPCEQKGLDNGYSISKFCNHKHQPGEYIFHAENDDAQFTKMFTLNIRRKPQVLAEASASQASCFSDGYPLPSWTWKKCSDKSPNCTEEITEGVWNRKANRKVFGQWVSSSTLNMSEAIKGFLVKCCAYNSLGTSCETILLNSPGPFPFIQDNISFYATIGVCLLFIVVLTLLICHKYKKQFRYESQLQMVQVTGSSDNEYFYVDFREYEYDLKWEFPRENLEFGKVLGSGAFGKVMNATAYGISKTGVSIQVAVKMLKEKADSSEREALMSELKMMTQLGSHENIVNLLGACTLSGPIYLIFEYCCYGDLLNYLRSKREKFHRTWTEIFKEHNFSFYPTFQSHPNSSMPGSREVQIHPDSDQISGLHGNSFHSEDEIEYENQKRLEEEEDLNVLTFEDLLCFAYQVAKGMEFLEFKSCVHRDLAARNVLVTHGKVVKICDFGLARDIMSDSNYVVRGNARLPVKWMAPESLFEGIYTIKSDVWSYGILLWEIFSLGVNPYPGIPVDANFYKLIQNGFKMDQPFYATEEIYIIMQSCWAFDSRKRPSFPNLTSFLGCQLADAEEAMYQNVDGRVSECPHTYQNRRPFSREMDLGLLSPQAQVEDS

[4] = target: α-PDGF receptor (Homo sapiens, UniProt P16234); details: cited from earlier work
[5] = target: Kdr (Homo sapiens, UniProt P35968); details: cited from earlier work
[6] = system: restenotic lesion formation; test: Rabbit iliac stent model, restenosis at 28 days; format: in vivo, New Zealand White rabbit
Description: A combined angioplasty and stenting procedure is performed in New Zealand White rabbit iliac arteries. Iliac artery balloon injury is performed by inflating a 3.0×9.0 mm angioplasty balloon in the mid-portion of the artery followed by “pull-back” of the catheter for 1 balloon length. Balloon injury is repeated 2 times, and a 3.0×12 mm stent is deployed at 6 atm for 30 seconds in the iliac artery. Balloon injury and stent placement is then performed on the contralateral iliac artery in the same manner. A post-stent deployment angiogram is performed. All animals receive oral aspirin 40 mg/day daily as anti-platelet therapy and are fed standard low-cholesterol rabbit chow. Twenty-eight days after stenting, animals are anesthetized and euthanized and the arterial tree is perfused at 100 mmHg with lactated Ringer's for several minutes, then perfused with 10% formalin at 100 mmHg for 15 minutes. The vascular section between the distal aorta and the proximal femoral arteries is excised and cleaned of periadventitial tissue. The stented section of artery is embedded in plastic and sections are taken from the proximal, middle, and distal portions of each stent. All sections are stained with hematoxylin-eosin and Movat pentachrome stains. Computerized planimetry is performed to determine the area of the internal elastic lamina (IEL), external elastic lamina (EEL) and lumen. The neointima and neointimal thickness is measured both at and between the stent struts. The vessel area is measured as the area within the EEL. Data are expressed as mean±SEM. Statistical analysis of the histologic data is accomplished using analysis of variance (ANOVA) due to the fact that two stented arteries are measured per animal with a mean generated per animal. A P<0.05 is considered statistically significant.
COMPOUND is administered orally by gavage at 30 mg/kg once daily from 3 days prior to stenting until day 27 post-stenting. […] There is extensive neointimal formation in placebo-treated animals at 28 days, with the lesions consisting of abundant smooth muscle cells in proteoglycan/collagen matrix and apparent full endothelial healing. In arterial segments from the animals treated with COMPOUND I, the Intima is well healed, characterized by a compact neointima consisting of smooth muscle cells and endothelium fully covering the lumen surface both over stent struts and between struts.

[7] = target: Tek (Homo sapiens, UniProt Q02763); details: cited from earlier work
[8] = target: c-Met (Homo sapiens, UniProt P08581); details: cited from earlier work
[9] = target: receptor for stem cell factor (Homo sapiens, UniProt P10721); details: cited from earlier work
[10] = target: β-PDGF receptor (Homo sapiens, UniProt P09619); details: cited from earlier work
[11] = target: Jak-2 (Homo sapiens, UniProt O60674); details: cited from earlier work
[12] = system: platelet-derived growth factor (PDGF) receptor; details: in vitro; cited from earlier work
[13] = in conjunction with COMPOUND I
Description: Data points just spanning the IC50 of the agents alone or in combination are entered into the CalcuSyn program (CalcuSyn, Biosoft, Cambridge UK).

[14] = 30 mg/kg orally once daily, 28 days after stenting

Sequence of receptor for stem cell factor (P10721 26-976): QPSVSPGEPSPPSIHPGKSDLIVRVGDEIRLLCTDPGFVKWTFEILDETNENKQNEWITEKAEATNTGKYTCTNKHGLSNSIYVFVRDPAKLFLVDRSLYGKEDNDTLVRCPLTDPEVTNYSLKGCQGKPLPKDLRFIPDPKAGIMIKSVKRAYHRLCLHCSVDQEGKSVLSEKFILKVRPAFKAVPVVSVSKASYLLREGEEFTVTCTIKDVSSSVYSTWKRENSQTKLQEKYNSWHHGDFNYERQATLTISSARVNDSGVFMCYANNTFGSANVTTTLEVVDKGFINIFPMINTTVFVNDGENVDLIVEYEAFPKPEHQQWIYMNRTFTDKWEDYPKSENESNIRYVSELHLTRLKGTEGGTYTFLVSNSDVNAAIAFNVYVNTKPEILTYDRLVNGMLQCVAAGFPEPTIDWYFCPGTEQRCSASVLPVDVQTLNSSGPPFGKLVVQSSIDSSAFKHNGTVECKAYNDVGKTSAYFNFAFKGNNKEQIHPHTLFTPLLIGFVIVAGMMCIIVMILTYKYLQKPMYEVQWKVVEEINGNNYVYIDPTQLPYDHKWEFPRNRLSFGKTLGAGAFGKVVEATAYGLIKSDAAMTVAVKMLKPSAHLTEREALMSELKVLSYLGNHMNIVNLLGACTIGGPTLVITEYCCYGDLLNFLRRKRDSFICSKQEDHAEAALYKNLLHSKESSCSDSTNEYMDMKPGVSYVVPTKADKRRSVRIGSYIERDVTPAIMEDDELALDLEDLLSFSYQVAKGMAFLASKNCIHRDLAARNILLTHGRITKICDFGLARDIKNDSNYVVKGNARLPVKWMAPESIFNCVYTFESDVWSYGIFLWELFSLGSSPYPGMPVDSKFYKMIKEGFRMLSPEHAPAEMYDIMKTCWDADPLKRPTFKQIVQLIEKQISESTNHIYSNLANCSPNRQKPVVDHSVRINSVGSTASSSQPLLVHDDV
Sequence of Flt-1 (P17948 27-1338, species assumed): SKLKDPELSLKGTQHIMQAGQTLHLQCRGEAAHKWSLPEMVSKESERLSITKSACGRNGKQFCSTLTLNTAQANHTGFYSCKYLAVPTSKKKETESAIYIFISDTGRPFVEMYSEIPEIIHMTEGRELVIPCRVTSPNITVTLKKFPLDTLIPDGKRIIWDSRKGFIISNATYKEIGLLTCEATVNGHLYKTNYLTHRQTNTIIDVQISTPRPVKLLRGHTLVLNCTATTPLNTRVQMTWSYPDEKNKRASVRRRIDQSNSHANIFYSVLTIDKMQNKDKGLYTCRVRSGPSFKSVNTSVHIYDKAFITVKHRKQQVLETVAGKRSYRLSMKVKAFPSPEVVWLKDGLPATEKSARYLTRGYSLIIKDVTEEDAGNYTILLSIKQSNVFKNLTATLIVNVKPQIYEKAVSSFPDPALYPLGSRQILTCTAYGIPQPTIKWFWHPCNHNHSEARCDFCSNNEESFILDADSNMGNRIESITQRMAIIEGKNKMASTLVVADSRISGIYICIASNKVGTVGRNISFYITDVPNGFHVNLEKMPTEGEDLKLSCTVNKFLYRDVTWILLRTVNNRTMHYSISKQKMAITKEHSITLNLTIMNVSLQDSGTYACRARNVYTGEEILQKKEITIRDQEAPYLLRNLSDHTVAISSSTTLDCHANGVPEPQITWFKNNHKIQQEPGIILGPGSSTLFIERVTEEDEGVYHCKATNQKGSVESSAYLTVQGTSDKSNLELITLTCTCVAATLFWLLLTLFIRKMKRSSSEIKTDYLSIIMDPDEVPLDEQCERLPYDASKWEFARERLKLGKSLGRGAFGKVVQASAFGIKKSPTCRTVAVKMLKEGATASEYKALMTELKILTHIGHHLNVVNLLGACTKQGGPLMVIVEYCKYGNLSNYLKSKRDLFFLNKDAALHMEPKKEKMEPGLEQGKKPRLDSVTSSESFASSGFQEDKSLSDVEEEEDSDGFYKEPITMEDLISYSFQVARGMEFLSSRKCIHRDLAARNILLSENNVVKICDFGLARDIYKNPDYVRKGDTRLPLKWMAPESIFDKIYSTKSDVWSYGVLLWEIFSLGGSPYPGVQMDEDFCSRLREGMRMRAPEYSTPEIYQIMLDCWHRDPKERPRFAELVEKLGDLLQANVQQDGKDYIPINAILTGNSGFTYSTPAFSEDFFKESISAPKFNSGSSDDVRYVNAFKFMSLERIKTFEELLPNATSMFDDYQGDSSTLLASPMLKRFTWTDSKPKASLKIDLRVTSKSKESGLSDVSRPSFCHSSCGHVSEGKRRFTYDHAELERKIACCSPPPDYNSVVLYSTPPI
Sequence of Kdr (P35968 20-1356, species assumed): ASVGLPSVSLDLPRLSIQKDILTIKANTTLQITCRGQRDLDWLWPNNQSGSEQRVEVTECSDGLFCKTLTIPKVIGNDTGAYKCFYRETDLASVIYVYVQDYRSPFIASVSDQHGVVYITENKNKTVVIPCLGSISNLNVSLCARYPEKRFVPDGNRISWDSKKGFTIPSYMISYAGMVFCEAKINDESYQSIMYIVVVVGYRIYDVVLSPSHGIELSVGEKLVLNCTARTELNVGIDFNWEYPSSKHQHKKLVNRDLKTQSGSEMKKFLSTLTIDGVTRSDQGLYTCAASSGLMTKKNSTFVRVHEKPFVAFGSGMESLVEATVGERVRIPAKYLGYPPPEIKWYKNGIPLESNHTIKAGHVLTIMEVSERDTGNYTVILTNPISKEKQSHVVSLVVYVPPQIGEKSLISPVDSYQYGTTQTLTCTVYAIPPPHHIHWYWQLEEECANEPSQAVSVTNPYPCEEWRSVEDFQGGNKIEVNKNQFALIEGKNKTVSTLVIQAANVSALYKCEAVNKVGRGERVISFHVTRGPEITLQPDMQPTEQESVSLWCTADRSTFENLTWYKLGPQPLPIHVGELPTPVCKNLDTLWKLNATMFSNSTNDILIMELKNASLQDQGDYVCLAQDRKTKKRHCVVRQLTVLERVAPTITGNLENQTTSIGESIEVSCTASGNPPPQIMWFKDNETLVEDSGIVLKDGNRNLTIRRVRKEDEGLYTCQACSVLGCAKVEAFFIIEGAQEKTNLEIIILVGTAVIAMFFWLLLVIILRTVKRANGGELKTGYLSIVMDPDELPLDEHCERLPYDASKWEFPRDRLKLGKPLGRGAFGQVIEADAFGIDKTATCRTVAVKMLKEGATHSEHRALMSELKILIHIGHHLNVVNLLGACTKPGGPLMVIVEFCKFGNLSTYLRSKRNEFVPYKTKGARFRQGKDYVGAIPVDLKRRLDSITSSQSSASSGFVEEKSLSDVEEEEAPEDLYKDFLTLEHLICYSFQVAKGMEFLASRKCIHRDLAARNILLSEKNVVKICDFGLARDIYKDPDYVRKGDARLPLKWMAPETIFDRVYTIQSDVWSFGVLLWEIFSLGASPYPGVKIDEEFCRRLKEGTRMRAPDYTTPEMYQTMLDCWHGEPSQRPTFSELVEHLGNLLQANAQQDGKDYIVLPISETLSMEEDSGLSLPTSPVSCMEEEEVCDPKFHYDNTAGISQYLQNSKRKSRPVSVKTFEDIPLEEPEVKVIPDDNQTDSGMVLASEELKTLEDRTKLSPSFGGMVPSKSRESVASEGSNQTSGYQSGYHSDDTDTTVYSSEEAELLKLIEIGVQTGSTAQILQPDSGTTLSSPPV
Sequence of c-Met (P08581 25-1390): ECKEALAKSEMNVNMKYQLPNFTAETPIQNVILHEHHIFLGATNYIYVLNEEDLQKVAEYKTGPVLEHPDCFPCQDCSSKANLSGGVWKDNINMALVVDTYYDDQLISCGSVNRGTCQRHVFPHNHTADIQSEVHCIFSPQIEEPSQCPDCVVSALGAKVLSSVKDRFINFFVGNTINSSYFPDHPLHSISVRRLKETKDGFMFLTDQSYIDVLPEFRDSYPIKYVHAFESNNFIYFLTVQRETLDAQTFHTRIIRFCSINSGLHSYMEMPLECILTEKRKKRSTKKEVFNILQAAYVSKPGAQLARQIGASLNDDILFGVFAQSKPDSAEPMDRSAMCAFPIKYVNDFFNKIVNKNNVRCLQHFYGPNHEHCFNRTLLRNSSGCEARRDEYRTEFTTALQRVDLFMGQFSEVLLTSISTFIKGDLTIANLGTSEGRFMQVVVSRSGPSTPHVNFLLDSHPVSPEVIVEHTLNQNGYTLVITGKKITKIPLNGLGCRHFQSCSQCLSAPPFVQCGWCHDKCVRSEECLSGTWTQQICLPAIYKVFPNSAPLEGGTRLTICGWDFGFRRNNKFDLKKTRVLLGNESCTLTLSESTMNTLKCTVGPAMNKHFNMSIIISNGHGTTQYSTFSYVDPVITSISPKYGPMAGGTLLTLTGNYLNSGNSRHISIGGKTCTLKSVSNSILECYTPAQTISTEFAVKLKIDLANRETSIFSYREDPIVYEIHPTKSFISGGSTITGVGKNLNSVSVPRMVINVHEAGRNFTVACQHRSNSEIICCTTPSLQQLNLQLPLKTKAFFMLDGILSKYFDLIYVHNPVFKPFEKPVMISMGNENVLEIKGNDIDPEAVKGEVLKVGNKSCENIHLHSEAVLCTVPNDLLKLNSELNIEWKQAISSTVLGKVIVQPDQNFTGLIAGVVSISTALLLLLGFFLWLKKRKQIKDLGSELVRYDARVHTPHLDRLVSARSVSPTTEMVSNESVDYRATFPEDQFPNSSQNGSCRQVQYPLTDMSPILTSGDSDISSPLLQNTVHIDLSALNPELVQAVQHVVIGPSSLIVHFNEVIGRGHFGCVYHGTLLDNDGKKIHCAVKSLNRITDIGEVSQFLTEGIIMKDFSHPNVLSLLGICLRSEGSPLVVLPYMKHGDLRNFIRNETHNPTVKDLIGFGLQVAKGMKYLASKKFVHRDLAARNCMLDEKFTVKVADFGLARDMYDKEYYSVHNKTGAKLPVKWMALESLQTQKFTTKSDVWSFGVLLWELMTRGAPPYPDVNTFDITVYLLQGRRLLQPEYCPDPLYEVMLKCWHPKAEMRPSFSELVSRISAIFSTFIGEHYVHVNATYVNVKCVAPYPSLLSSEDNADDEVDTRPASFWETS

Cc1ccc(NC(=O)c2ccc(CN3CCN(C)CC3)cc2)cc1Nc1nccc(-c2cccnc2)n1 [COMPOUND I, N-{5-[4-(4-methyl-piperazino-methyl)-benzoylamido]-2-methylphenyl}-4-(3-pyridyl)-2-pyrimidine-amine]
inhibition of kinase activity of Flt-1 [1]: not | percent inhibition of neointimal lesion formation ([2]; 0.5 mg/kg oral daily): 17% | percent inhibition of neointimal lesion formation ([2]; 2.0 mg/kg oral daily): 37% | neointimal lesion formation at 28 days following balloon injury ([2]; oral daily, dose of from 0.2 to 3.5 mg, preferably 0.5 to 2.0 mg/kg): significantly reduce | inhibition of kinase activity of Flt-3 [3]: not | inhibition of kinase activity of α-PDGF receptor [4]: potently inhibit | inhibition of kinase activity of Kdr [5]: not | EEL area compared with control [6, 14]: did not result in differences | intima healing in arterial segments [6, 14]: well healed | reduction in average neointimal thickness ([6]; 30 mg/kg orally once daily, 28 days after stenting, vs placebo, P<0.0001): 29% | reduction in percent arterial stenosis ([6]; 30 mg/kg orally once daily, 28 days after stenting, vs placebo, P<0.0002): 17% | reduction in neointimal area ([6]; 30 mg/kg orally once daily, 28 days after stenting, vs placebo, P<0.04): 17% | fibrin deposit ([6]; rabbit iliac arteries, in-stent): reduced | inhibition of kinase activity of Tek [7]: not | inhibition of c-Met [8]: no inhibition | inhibition of kinase activity of the receptor for stem cell factor [9]: potently inhibit | inhibition of kinase activity of β-PDGF receptor [10]: potently inhibit | inhibition of Jak-2 [11]: no inhibition | inhibition of PDGF receptor tyrosine kinase [12]: selectively inhibits

COc1cccc2c1C(=O)c1c(O)c3c(c(O)c1C2=O)C[C@@](O)(C(=O)CO)C[C@@H]3O[C@H]1C[C@H](N)[C@H](O)[C@H](C)O1 [doxorubicin]
interaction with COMPOUND I in combination [13]: Slight synergism or synergy

CC[C@]1(O)C[C@@H]2CN(CCc3c([nH]c4ccccc34)[C@@](C(=O)OC)(c3cc4c(cc3OC)N(C)[C@H]3[C@@](O)(C(=O)OC)[C@H](OC(C)=O)[C@]5(CC)C=CCN6CC[C@]43[C@@H]65)C2)C1 [Vinblastine, vinblastine]
interaction with COMPOUND I in combination [13]: Slight synergism or synergy

CC(=O)O[C@H]1C(=O)[C@@]2(C)[C@H]([C@H](OC(=O)c3ccccc3)[C@]3(O)C[C@H](OC(=O)[C@H](O)[C@@H](NC(=O)c4ccccc4)c4ccccc4)C(C)=C1C3(C)C)[C@]1(OC(C)=O)CO[C@@H]1C[C@@H]2O [Taxol, taxol]
interaction with COMPOUND I in combination [13]: Slight synergism or synergy

Reference: US20050209244A1, “N{5-[4-(4-methyl-piperazino-methyl)-benzoylamido]-2-methylphenyl}-4-(3-pyridyl)-2-pyrimidine-amine coated stents” (priority 2002, published 2005)
